The values below come from ChEMBL document CHEMBL1765018, “Inhibition of amyloid-β aggregation by coumarin analogs can be manipulated by functionalization of the aromatic center” (Bioorg Med Chem, 2011).

Experiment [1] in a line: Inhibition of amyloid beta (1 to 40) monomer aggregation assessed as lag time extension by thioflavin T based fluorometric assay relative to control.
The nature of experiment [2]: Inhibition of amyloid beta (1 to 40) monomer aggregation assessed as reduction in plateau fluorescence by thioflavin T based fluorometric assay. Details: concentration or dose not given beside the values.
Experiment [3] is described as follows: Inhibition of amyloid beta (1 to 40) monomer aggregation at 100 uM by thioflavin T based fluorometric assay.
Experiment [4] is described as follows: Inhibition of amyloid beta (1 to 40) monomer aggregation assessed as doubling in lag time by thioflavin T based fluorometric assay.

The source made the active and inactive calls. The rule behind the calls is not given here.

For orientation: inhibition means the percentage by which the read-out fell short of the control. For the compound `O=c1oc2ccccc2cc1-c1nn[nH]n1`, the fold change (FC) in experiment [1] came to 1. Moreover, in experiment [2] (concentration not given here), the inhibition is 87%.
In the case of `CCN(CC)c1ccc2cc(-c3nc4ccccc4s3)c(=O)oc2c1`, in experiment [1], the fold change (FC) was determined as 1.3. The inhibition in experiment [2] (concentration not given here) was determined as 64%.
Take `CCN(CC)c1ccc2c(C#N)c(N)c(=O)oc2c1`: the fold change (FC) in experiment [1] came to 2.1.
`O=c1cc(Cl)c2ccccc2o1`: the outcome in experiment [1] and in experiment [3] was inactive. Also, in experiment [2], the inhibition result is “inactive”.
Consider `CCN(CC)c1ccc2c(C#N)c(C(C)=O)c(=O)oc2c1`, for which, in experiment [1], the fold change (FC) came out at 1.8.
In the case of `O=c1cc(-n2cc(-c3ccccc3)nn2)c2ccccc2o1`, the fold change (FC) in experiment [1] was 1.4. Besides, in experiment [2] (concentration not given here), the inhibition came out at 73%.
With `O=c1oc2ccccc2cc1-n1cc(-c2cccc3ccccc23)nn1`, in experiment [1], the fold change (FC) came out at 2. In experiment [2] (concentration not given here), the inhibition came out at 61%. Moreover, the result in experiment [4] was Active.
For `CCN(CC)c1ccc2cc([N+](=O)[O-])c(=O)oc2c1`, the fold change (FC) in experiment [1] was found to be 1.7.
Consider `N#Cc1cc2ccccc2oc1=O`, for which the fold change (FC) in experiment [1] was 1. In addition, the inhibition in experiment [2] (concentration not given here) is 22%.
For the compound `O=C(O)CCCC(=O)NCc1cn(-c2cc3ccccc3oc2=O)nn1`, the result in experiment [1] was inactive. Also, the inhibition result in experiment [2] is “inactive”.
Take `CCN(CC)c1ccc2c(-c3nnn[nH]3)c(-c3nc4ccccc4s3)c(=O)oc2c1`: the fold change (FC) in experiment [1] worked out at 1. Besides, the inhibition in experiment [2] (concentration not given here) was determined as 96%.
With `CCN(CC)c1ccc2c(C#N)c(-c3nc4ccccc4s3)c(=O)oc2c1`, the fold change (FC) in experiment [1] is 1.1. The inhibition in experiment [2] (concentration not given here) was determined as 38%.
In the case of `O=c1oc2ccccc2cc1-n1cc(-c2ccccc2)nn1`, in experiment [1], the fold change (FC) worked out at 2.2. Besides, the inhibition in experiment [2] (concentration not given here) came to 88%.
